Data reported in ChEMBL document CHEMBL4725469, “Hydrogen Peroxide Inducible JAK3 Covalent Inhibitor: Prodrug for the Treatment of RA with Enhanced Safety Profile” (ACS Med Chem Lett, 2020).
Activity calls are given as the source filed them. No cut-off for these calls is given here.

Legend:
[1] = Prodrug activation in DMSO assessed as H2O2 mediated prodrug release after 4 hrs in presence of 0.1 uM H2O2 after 4 hrs by RP-HPLC-UV analysis
[2] = Stability in mouse plasma at 20 uM after 0.25 to 24 hrs by RP-UPLC-UV analysis; format: ADME, cell-free; details: time 0.25-24 hrs, read-out: Stabilty
[3] = Stability in human plasma at 20 uM after 0.25 to 24 hrs by RP-UPLC-UV analysis; format: ADME, cell-free; details: time 0.25-24 hrs, read-out: Stabilty
[4] = Stability in simulated intestinal fluid incubated for 0.25 to 24 hrs by RP-UPLC-UV analysis
[5] = Stability in simulated gastric fluid measured after 0.25 to 24 hrs by RP-UPLC-UV analysis
[6] = Stability in phosphate buffer saline at pH 7.4 after 0.25 to 24 hrs by RP-UPLC-UV analysis; format: physicochemical; details: time 0.25-24 hrs
[7] = Dissociation constant, pKa of the compound; format: physicochemical
[8] = Aqueous solubility of compound at pH 7.4; format: physicochemical; details: buffer
[9] = Permeability of compound at pH 7.4 by PAMPA assay; format: ADME; details: read-out: permeability
[10] = target: T1, Tyrosine-protein kinase JAK3 (Mus musculus) (UniProt Q62137); experiment: Inhibition of JAK3 in mouse BaF3/TEL-JAK3 cells assessed as effect on STAT3 phosphorylation at 0.125 to 2 uM by Western blot analysis; format: cell-based; details: dose microM 0.125-2
T1 sequence (whole entry): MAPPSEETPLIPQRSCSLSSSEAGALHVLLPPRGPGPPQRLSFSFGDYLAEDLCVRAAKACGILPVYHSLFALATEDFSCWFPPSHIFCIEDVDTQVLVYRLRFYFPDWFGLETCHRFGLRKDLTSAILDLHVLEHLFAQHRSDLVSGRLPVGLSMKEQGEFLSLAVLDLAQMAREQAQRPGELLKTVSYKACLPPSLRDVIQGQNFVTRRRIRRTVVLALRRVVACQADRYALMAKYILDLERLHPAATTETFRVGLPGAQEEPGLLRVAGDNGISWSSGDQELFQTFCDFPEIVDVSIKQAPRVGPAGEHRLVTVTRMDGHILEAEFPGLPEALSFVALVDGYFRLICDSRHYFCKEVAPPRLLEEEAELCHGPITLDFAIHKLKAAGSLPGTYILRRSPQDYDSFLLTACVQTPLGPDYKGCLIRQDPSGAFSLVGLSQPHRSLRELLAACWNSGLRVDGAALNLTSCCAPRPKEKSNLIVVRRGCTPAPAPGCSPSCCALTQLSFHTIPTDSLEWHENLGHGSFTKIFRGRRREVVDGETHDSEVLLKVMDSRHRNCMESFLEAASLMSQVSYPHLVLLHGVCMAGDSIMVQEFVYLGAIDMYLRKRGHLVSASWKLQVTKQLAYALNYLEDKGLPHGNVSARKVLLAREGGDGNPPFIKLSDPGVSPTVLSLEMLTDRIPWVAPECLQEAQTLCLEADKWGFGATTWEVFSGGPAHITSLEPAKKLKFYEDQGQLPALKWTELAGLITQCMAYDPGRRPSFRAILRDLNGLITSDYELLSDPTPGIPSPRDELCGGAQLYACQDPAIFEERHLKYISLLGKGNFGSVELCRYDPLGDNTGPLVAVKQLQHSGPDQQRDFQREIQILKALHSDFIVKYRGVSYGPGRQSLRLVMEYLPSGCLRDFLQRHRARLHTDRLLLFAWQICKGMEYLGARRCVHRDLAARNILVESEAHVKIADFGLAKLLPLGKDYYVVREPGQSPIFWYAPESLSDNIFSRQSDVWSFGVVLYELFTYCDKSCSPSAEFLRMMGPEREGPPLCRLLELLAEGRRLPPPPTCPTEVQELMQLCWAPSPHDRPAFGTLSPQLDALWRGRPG

[11] = target: T1, Tyrosine-protein kinase JAK3 (Mus musculus); experiment: Inhibition of JAK3 in mouse BaF3/TEL-JAK3 cells assessed as effect on STAT5 phosphorylation at 0.125 to 2 uM by Western blot analysis; format: cell-based; details: dose microM 0.125-2
[12] = Half life in Sprague-Dawley rat at 20 mg/kg, ip measured for 0.8 to 24 hrs by LC-MS/MS analysis; format: ADME, organism-based; details: in vivo, time 0.8-24 hrs
[13] = Cmax in Sprague-Dawley rat at 20 mg/kg, ip measured for 0.8 to 24 hrs by LC-MS/MS analysis; format: ADME, organism-based; set-up: route intraperitoneal, dose 20 mg/kg, time 0.8-24; details: in vivo
[14] = Tmax in Sprague-Dawley rat at 20 mg/kg, ip measured for 0.8 to 24 hrs by LC-MS/MS analysis; format: ADME, organism-based; details: in vivo, time 0.8-24 hrs
[15] = AUC in Sprague-Dawley rat at 20 mg/kg, ip measured for 0.8 to 24 hrs by LC-MS/MS analysis; format: ADME, organism-based; set-up: route intraperitoneal, dose 20 mg/kg, time 0.8-24; details: in vivo
[16] = MRT (0 to infinity) in Sprague-Dawley rat at 20 mg/kg, ip measured for 0.8 to 24 hrs by LC-MS/MS analysis; format: ADME, organism-based; details: in vivo, time 0.8-24 hrs
[17] = Apparent volume of distribution in Sprague-Dawley rat at 20 mg/kg, ip measured for 0.8 to 24 hrs by LC-MS/MS analysis; format: ADME, organism-based; details: in vivo, time 0.8-24 hrs
[18] = Apparent clearance in Sprague-Dawley rat at 20 mg/kg, ip measured for 0.8 to 24 hrs by LC-MS/MS analysis; format: ADME, organism-based; details: in vivo, time 0.8-24 hrs
Mus musculus [19] = experiment: Antiarthritic activity in collagen/complete freund's adjuvant-induced rheumatoid arthritis DBA/1J mouse model assessed as inhibition of feet swelling at 20 mg/kg, ip administered for 14 days by H and E staining based analysis; format: functional, organism-based; details: time 14.0 day
Mus musculus [20] = experiment: Antiarthritic activity in ip dosed collagen/complete freund's adjuvant-induced rheumatoid arthritis DBA/1J mouse model assessed as inhibition of feet swelling administered for 14 days by H and E staining based analysis; format: functional, organism-based; details: dose mg/kg 5-20, time 14.0 day
Mus musculus [21] = experiment: Antiarthritic activity in ip dosed collagen/complete freund's adjuvant-induced rheumatoid arthritis DBA/1J mouse model assessed as reduction in IL-2 level in serum administered for 14 days by ELISA; format: functional, organism-based; details: dose mg/kg 5-20, time 14.0 day
Mus musculus [22] = experiment: Antiarthritic activity in ip dosed collagen/complete freund's adjuvant-induced rheumatoid arthritis DBA/1J mouse model assessed as reduction in G-CSF level in serum administered for 14 days by ELISA; format: functional, organism-based; details: dose mg/kg 5-20, time 14.0 day
Mus musculus [23] = experiment: Antiarthritic activity in ip dosed collagen/complete freund's adjuvant-induced rheumatoid arthritis DBA/1J mouse model assessed as reduction in serum amyloid A level administered for 14 days by ELISA; format: functional, organism-based; details: dose mg/kg 5-20, time 14.0 day
Mus musculus [24] = experiment: Antiarthritic activity in DBA/1J mouse model assessed as effect on collagen/complete freund's adjuvant-induced disordered synovial cells in ankle joints at 20 mg/kg, ip administered for 14 days by H and E staining analysis; format: functional, organism-based; details: time 14.0 day
Mus musculus [25] = experiment: Antiarthritic activity in DBA/1J mouse model assessed as effect on collagen/complete freund's adjuvant-induced eroded synovial cells in ankle joints at 20 mg/kg, ip administered for 14 days by H and E staining analysis; format: functional, organism-based; details: time 14.0 day
Mus musculus [26] = experiment: Antiarthritic activity in DBA/1J mouse model assessed as effect on collagen/complete freund's adjuvant-induced synovial hyperplasia at 20 mg/kg, ip administered for 14 days by H and E staining analysis; format: functional, organism-based; details: time 14.0 day
Mus musculus [27] = experiment: In vivo inhibition of JAK3 in collagen/complete freund's adjuvant-induced rheumatoid arthritis DBA/1J mouse model assessed as effect on STAT5 phosphorylation in heart at 20 mg/kg, ip administered for 14 days by Western blot analysis; format: functional, organism-based; details: time 14.0 day
Mus musculus [28] = experiment: In vivo inhibition of JAK3 in collagen/complete freund's adjuvant-induced rheumatoid arthritis DBA/1J mouse model assessed as effect on STAT5 phosphorylation in liver at 20 mg/kg, ip administered for 14 days by Western blot analysis; format: functional, organism-based; details: time 14.0 day
Mus musculus [29] = experiment: In vivo inhibition of JAK3 in collagen/complete freund's adjuvant-induced rheumatoid arthritis DBA/1J mouse model assessed as effect on STAT5 phosphorylation in spleen at 20 mg/kg, ip administered for 14 days by Western blot analysis; format: functional, organism-based; details: time 14.0 day
Mus musculus [30] = experiment: In vivo inhibition of JAK3 in collagen/complete freund's adjuvant-induced rheumatoid arthritis DBA/1J mouse model assessed as effect on STAT5 phosphorylation in lung at 20 mg/kg, ip administered for 14 days by Western blot analysis; format: functional, organism-based; details: time 14.0 day
Mus musculus [31] = experiment: In vivo inhibition of JAK3 in collagen/complete freund's adjuvant-induced rheumatoid arthritis DBA/1J mouse model assessed as effect on STAT5 phosphorylation in kidney at 20 mg/kg, ip administered for 14 days by Western blot analysis; format: functional, organism-based; details: time 14.0 day
[32] = Drug level in ankle joint of collagen/complete freund's adjuvant-induced rheumatoid arthritis DBA/1J mouse model at 20 mg/kg, ip by LC-MS/MS analysis; format: ADME, organism-based; details: in vivo, read-out: Ct
[33] = Prodrug activation in collagen/complete freund's adjuvant-induced rheumatoid arthritis DBA/1J mouse model assessed as Z)-2-((5-(1-cyclohexyl-1,6-dihydroimidazo[4,5-d]pyrrolo[2,3-b]pyridin-2-yl)furan-2-yl)(hydroxy)methyl)-3-(dimethylamino)-3-((4-(4,4,5,5-tetramethyl-1,3,2-dioxaborolan-2-yl)benzyl)oxy)acrylonitrile level in ankle joint at […], ip by LC-MS/MS analysis; format: organism-based; details: in vivo, 20 mg/kg, read-out: Ct
[34] = Toxicity in ICR mouse assessed as effect on body weight at 100 mg/kg, ip administered for 14 days; format: organism-based; details: in vivo, 336 h, time 14 day
[35] = Toxicity in ICR mouse assessed as increase in liver weight at 100 mg/kg, ip administered for 14 days; format: organism-based; details: in vivo, 336 h, time 14 day
[36] = Toxicity in ICR mouse assessed as increase in spleen weight at 100 mg/kg, ip administered for 14 days; format: organism-based; details: in vivo, 336 h, time 14 day
Mus musculus [37] = experiment: Antiarthritic activity in collagen/complete freund's adjuvant-induced rheumatoid arthritis DBA/1J mouse model assessed as inhibition of feet swelling at 10 mg/kg, ip administered for 14 days by H and E staining based analysis; format: functional, organism-based; details: time 14.0 day
[38] = Toxicity in ICR mouse assessed as inflammatory inflammation in heart at 100 mg/kg, ip administered for 14 days; format: organism-based; details: in vivo, 336 h, time 14 day
[39] = Toxicity in ICR mouse assessed as inflammatory inflammation in lungs at 100 mg/kg, ip administered for 14 days; format: organism-based; details: in vivo, 336 h, time 14 day

Row | SMILES | pKa [7] | solubility [8] | Papp [9] | inhibition [10] | inhibition [11] | t1/2 [12] | Cmax [13] | Tmax [14] | AUC [15] | MRT inf [16] | Vz [17] | CL(app) [18] | concentration [32] | Activity [34] | Activity [35] | Activity [36] | further results
1 | CN(C)/C(OCc1ccc(B2OC(C)(C)C(C)(C)O2)cc1)=C(\C#N)C(O)c1ccc(-c2nc3cnc4[nH]ccc4c3n2C2CCCCC2)o1 (stereo not given) | 10.7 | 0.011 mg/kg | 56.4 ×10⁻⁶ cm/s | Active | Active | 2.92 h | 983.33 ng/mL | 0.25 h | 963.5 µg·h/mL | 2.38 h | 8.7 L/kg | 35 mL/min/kg | 290 nM | Non-Toxic | Non-Toxic | Non-Toxic | Drug metabolism [1]: Not Active; remaining at 20 µM [2]: > 95%; remaining at 20 µM [3]: > 95%; Stability [4]: > 95%; Stability [5]: > 95%; Stabilty [6]: > 95%; inhibition (Mus musculus [19]): Active; inhibition (Mus musculus [20]): Dose-dependent effect; Activity (Mus musculus [21]): Active; Activity (Mus musculus [22]): Active; Activity (Mus musculus [23]): Active; Activity (Mus musculus [24]): Active; Activity (Mus musculus [25]): Active; Activity (Mus musculus [26]): Active; inhibition (Mus musculus [27]): inactive; inhibition (Mus musculus [28]): inactive; inhibition (Mus musculus [29]): inactive; inhibition (Mus musculus [30]): inactive; inhibition (Mus musculus [31]): inactive; concentration [33]: 1130 nM
2 | CN(C)C(=O)/C(C#N)=C/c1ccc(-c2nc3cnc4[nH]ccc4c3n2C2CCCCC2)o1 | 10.1 | 0.719 mg/kg | 14.7 ×10⁻⁶ cm/s | Active | Active | 2.36 h | 455.37 ng/mL | 0.17 h | 331.91 µg·h/mL | 3.84 h | 27.96 L/kg | 100 mL/min/kg | 1070 nM | Toxic | Toxic | Toxic | inhibition (Mus musculus [37]): Active; Activity [38]: Toxic; Activity [39]: Toxic
